Tests used:
[1] = molecular target: T1, isolated recombinant JAK1 kinase domain (Homo sapiens, UniProt P23458); assay: JAK1 enzyme assay (Caliper LabChip, peptide phosphorylation); type: biochemical; conditions: 1.5 nM JAK1, 25 μM ATP, 22° C., 30 minutes; Morrison tight binding model
T1 construct: The activity of the isolated recombinant JAK1 and JAK2 kinase domain was measured
Description: (§1) JAK Enzyme Assays were Carried Out as Follows:
(§2) The activity of the isolated recombinant JAK1 and JAK2 kinase domain was measured by monitoring phosphorylation of a peptide derived from JAK3 (Val-Ala-Leu-Val-Asp-Gly-Tyr-Phe-Arg-Leu-Thr-Thr, fluorescently labeled on the N-terminus with 5-carboxyfluorescein) using the Caliper LabChip® technology (Caliper Life Sciences, Hopkinton, Mass.). To determine inhibition constants (K), compounds were diluted serially in DMSO and added to 50 μL kinase reactions containing purified enzyme (1.5 nM JAK1, or 0.2 nM JAK2), 100 mM HEPES buffer (pH 7.2), 0.015% Brij-35, 1.5 μM peptide substrate, ATP (25 μM), 10 mM MgCl2, 4 mM DTT at a final DMSO concentration of 2%. Reactions were incubated at 22° C. in 384-well polypropylene microtiter plates for 30 minutes and then stopped by addition of 25 μL of an EDTA containing solution (100 mM HEPES buffer (pH 7.2), 0.015% Brij-35, 150 mM EDTA), resulting in a final EDTA concentration of 50 mM. After termination of the kinase reaction, the proportion of phosphorylated product was determined as a fraction of total peptide substrate using the Caliper LabChip® 3000 according to the manufacturer's specifications. Ki values were then determined using the Morrison tight binding model (Morrison, J. F., Biochim. Biophys. Acta. 185:269-296 (1969); William, J. W. and Morrison, J. F., Meth. Enzymol., 63:437-467 (1979)) modified for ATP-competitive inhibition [Ki=Ki,app/(1+[ATP]/Km,app)].

[2] = molecular target: T2, isolated recombinant JAK2 kinase domain (Homo sapiens, UniProt O60674); assay: JAK2 enzyme assay (Caliper LabChip, peptide phosphorylation); type: biochemical; conditions: 0.2 nM JAK2, 25 μM ATP, 22° C., 30 minutes; Morrison tight binding model
T2 construct: The activity of the isolated recombinant JAK1 and JAK2 kinase domain was measured
Description: as §1, §2

[3] = test system: JAK1-dependent STAT6 phosphorylation downstream of IL-13 stimulation; assay: JAK1 pathway assay in BEAS-2B cells (IL-13 stimulated pSTAT6, MSD); type: cell-based; conditions: BEAS-2B human bronchial epithelial cells, 1 hr compound incubation, IL-13 for 15 min; read-out: IL13-pSTAT6 BEAS2B IC50
Description: JAK1 Pathway Assay in Cell Lines was Carried Out as Follows:
Inhibitor potency (EC50) was determined in cell-based assays designed to measure JAK1 dependent STAT phosphorylation. As noted above, inhibition of IL-4, IL-13, and IL-9 signalling by blocking the Jak/Stat signaling pathway can alleviate asthmatic symptoms in pre-clinical lung inflammation models (Mathew et al., 2001, J Exp Med 193(9): 1087-1096; Kudlacz et. al., 2008, Eur J. Pharmacol 582(1-3): 154-161).
In one assay approach, TF-1 human erythroleukemia cells obtained from the American Type Culture Collection (ATCC; Manassas, Va.) were used to measure JAK1-dependent STAT6 phosphorylation downstream of IL-13 stimulation. Prior to use in the assays, TF-1 cells were starved of GM-CSF overnight in OptiMEM medium (Life Technologies, Grand Island, N.Y.) supplemented with 0.5% charcoal/dextran stripped fetal bovine serum (FBS), 0.1 mM non-essential amino acids (NEAA), and 1 mM sodium pyruvate. The assays were run in 384-well plates in serum-free OptiMEM medium using 300,000 cells per well. In a second assay approach, BEAS-2B human bronchial epithelial cells obtained from ATCC were plated at 100,000 cells per well of a 96-well plate one day prior to the experiment. The BEAS-2B assay was run in complete growth medium (bronchial epithelial basal medium plus bulletkit; Lonza; Basel, Switzerland).
Test compounds were serially diluted 1:2 in DMSO and then diluted 1:50 in medium just before use. Diluted compounds were added to the cells, for a final DMSO concentration of 0.2%, and incubated for 30 min (for the TF-1 assay) or 1 hr (for the BEAS-2B assay) at 37° C. Then, cells were stimulated with human recombinant cytokine at their respective EC90 concentrations, as previously determined for each individual lot. Cells were stimulated with IL-13 (R&D Systems, Minneapolis, Minn.) for 15 min at 37° C. The TF-1 cell reactions were stopped by the direct addition of 10× lysis buffer (Cell Signaling Technologies, Danvers, Mass.), whereas the BEAS-2B cell incubations were halted by the removal of medium and addition of 1× lysis buffer. The resultant samples were frozen in the plates at −80° C. Compound mediated inhibition of STAT6 phosphorylation was measured in the cell lysates using MesoScale Discovery (MSD) technology (Gaithersburg, Md.). EC50 values were determined as the concentration of compound required for 50% inhibition of STAT phosphorylation relative to that measured for the DMSO control.

T2 sequence (O60674 849-1124): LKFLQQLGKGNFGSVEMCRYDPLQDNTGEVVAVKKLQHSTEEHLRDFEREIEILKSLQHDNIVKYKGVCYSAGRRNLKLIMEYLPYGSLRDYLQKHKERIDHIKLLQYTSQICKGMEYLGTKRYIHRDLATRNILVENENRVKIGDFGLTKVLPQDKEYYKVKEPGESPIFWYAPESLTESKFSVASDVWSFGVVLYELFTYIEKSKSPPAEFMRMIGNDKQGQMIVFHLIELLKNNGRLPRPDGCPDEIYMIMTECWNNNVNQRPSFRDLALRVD
T1 sequence (P23458 875-1153): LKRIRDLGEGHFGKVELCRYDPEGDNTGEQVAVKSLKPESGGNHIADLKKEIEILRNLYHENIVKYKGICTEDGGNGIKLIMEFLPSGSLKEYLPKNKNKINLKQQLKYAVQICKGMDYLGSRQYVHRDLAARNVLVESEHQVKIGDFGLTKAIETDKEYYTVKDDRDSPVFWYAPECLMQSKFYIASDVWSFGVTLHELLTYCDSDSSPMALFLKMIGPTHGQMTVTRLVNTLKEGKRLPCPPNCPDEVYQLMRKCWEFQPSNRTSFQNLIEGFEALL

CSc1ccc(OC(F)F)c(-c2n[nH]cc2NC(=O)c2cnc3cccnn23)c1 [Example 13, N-[3-[2-(difluoromethoxy)-5-(methylsulfanyl)phenyl]-1H-pyrazol-4-yl]imidazo[1,2-b]pyridazine-3-carboxamide]
Ki [1]: 0.11 nM | Ki [2]: 0.05 nM | IC50 [3]: 2.9 nM

CC(C)Sc1ccc(OC(F)F)c(-c2n[nH]cc2NC(=O)c2cnc3cccnn23)c1 [Example 10, N-[3-[2-(difluoromethoxy)-5-(propan-2-ylsulfanyl)phenyl]-1H-pyrazol-4-yl]imidazo[1,2-b]pyridazine-3-carboxamide]
Ki [1]: 0.41 nM | Ki [2]: 0.26 nM | IC50 [3]: 7.5 nM

CSc1ccc(OC(F)F)c(-c2nn(CC(=O)N3CCC(CN4CCN(CC(=O)N(C)C)CC4)CC3)cc2NC(=O)c2cnc3cccnn23)c1 [Example 11]
Ki [1]: 0.51 nM | Ki [2]: 0.69 nM | IC50 [3]: 200 nM

O=C(Nc1cn(CC(=O)N2CCC(N3CCOCC3)CC2)nc1-c1cc(Cl)ccc1OC(F)F)c1cnc2cccnn12 [Example 4, N-[3-[5-chloro-2-(difluoromethoxy)phenyl]-1-[2-[4-(morpholin-4-yl)piperidin-1-yl]-2-oxoethyl]-1H-pyrazol-4-yl]imidazo[1,2-b]pyridazine-3-carboxamide]
Ki [1]: 0.36 nM | Ki [2]: 1.2 nM | IC50 [3]: 20 nM

O=C(Nc1c[nH]nc1-c1cc(SC2CC2)ccc1OC(F)F)c1cnc2cccnn12 [Example 9, N-[3-[5-(cyclopropylsulfanyl)-2-(difluoromethoxy)phenyl]-1H-pyrazol-4-yl]imidazo[1,2-b]pyridazine-3-carboxamide]
Ki [1]: 0.29 nM | Ki [2]: 0.12 nM | IC50 [3]: 11 nM

O=C(Nc1c[nH]nc1-c1cc(Cl)ccc1OC(F)F)c1cnc2cccnn12 [Example 6, N-[3-[5-chloro-2-(difluoromelhoxy)phenyl]-1H-pyrazol-4-yl]imidazo[1,2-b]pyridazine-3-carboxamide]
Ki [1]: 0.18 nM | Ki [2]: 0.063 nM | IC50 [3]: 4.5 nM

C#Cc1ccc2ncc(C(=O)Nc3c[nH]nc3-c3cc(Cl)ccc3OC(F)F)n2n1 [Example 3, N-[3-[5-chloro-2-(difluoromethoxy)phenyl]-1H-pyrazol-4-yl]-6-ethynyl-imidazo[1,2-b]pyridazine-3-carboxamide]
Ki [1]: 0.29 nM | Ki [2]: 0.076 nM | IC50 [3]: 21 nM

O=C(Nc1cn(CC(=O)N2CCN(CCN3CCOCC3)CC2)nc1-c1cc(Cl)ccc1OC(F)F)c1cnc2cccnn12 [Example 12, N-[3-[5-chloro-2-(difluoromethoxy)phenyl]-1-(2-[4-[2-(morpholin-4-yl)ethyl]piperazin-1-yl]-2-oxoethyl)-1H-pyrazol-4-yl]imidazo[1,2-b]pyridazine-3-carboxamide]
Ki [1]: 0.65 nM | Ki [2]: 2 nM | IC50 [3]: 150 nM

N#CC1(CNC2CCN(C(=O)Cn3cc(NC(=O)c4cnc5cccnn45)c(-c4cc(Cl)ccc4OC(F)F)n3)CC2)CC1 [Example 5, N-[3-[5-chloro-2-(difluoromethoxy)phenyl]-1-[2-(4-[[(1-cyanocyclopropyl)-methyl]amino]piperidin-1-yl)-2-oxoethyl]-1H-pyrazol-4-yl]imidazo[1,2-b]pyridazine-3-carboxamide]
Ki [1]: 0.56 nM | Ki [2]: 2.4 nM | IC50 [3]: 110 nM

CN(C1CCN(C(=O)Cn2cc(NC(=O)c3cnc4cccnn34)c(-c3cc(Cl)ccc3OC(F)F)n2)CC1)C1COC1 [Example 1, N-[3-[5-chloro-2-(difluoromethoxy)phenyl]-1-(2-[4-[methyl(oxetan-3-yl)amino]piperidin-1-yl]-2-oxoethyl)-1H-pyrazol-4-yl]imidazo[1,2-b]pyridazine-3-carboxamide]
Ki [1]: 0.33 nM | Ki [2]: 0.96 nM | IC50 [3]: 74 nM

NCCn1cc(NC(=O)c2cnc3cccnn23)c(-c2cc(Cl)ccc2OC(F)F)n1 [Example 7, N-[1-(2-aminoethyl)-3-[5-chloro-2-(difluoromethoxy)phenyl]-1H-pyrazol-4-yl]imidazo[1,2-b]pyridazine-3-carboxamide]
Ki [1]: 0.72 nM | Ki [2]: 0.53 nM | IC50 [3]: 34 nM

O=C(Nc1c[nH]nc1-c1cc(Cl)ccc1OC(F)F)c1cnc2ccc(Cl)nn12 [Example 2, 6-chloro-N-[3-[5-chloro-2-(difluoromethoxy)phenyl]-1H-pyrazol-4-yl]imidazo[1,2-b]pyridazine-3-carboxamide]
Ki [1]: 1.5 nM | Ki [2]: 0.2 nM | IC50 [3]: 16 nM

Cn1cc(NC(=O)c2cnc3cccnn23)c(-c2cc(Cl)ccc2OC(F)F)n1 [Example 8, N-[3-[5-chloro-2-(difluoromethoxy)phenyl]-1-methyl-1H-pyrazol-4-yl]imidazo[1,2-b]pyridazine-3-carboxamide]
Ki [1]: 0.28 nM | Ki [2]: 0.14 nM | IC50 [3]: 6 nM
